Laboratory results published in US4670469A, “Hydroxamic acid and pharmaceutical preparations containing the same” (VEB Arzneimittelwerk Dresden, priority 1983, dated 1987).
Values joined by “and” are separate entries in the source; they are usually repeats but may differ in a detail not shown here. Equal values may be shown once.

How the values were obtained:
guinea pig lung strips = test: Activity on the basal tones of guinea pig lung strips; details: Cavia porcellus, basal tone, cumulative dose-activity curve
Excerpt: The testing of the compounds for antiasthmatic activity follows on isolated lung strips and isolated tracheal rings from guinea pigs according to measuring methods known from the literature (supra) in modified form. The measurements follow in thermostatically controlled organ bath, isotonically using a contraction measuring arrangement with lift receiver, measuring coil, measuring amplifier (inductive measurement with the aid of a high frequency resonant circuit). The gasification follows with air. The suspension solution has the following composition: 39.46 g NaCl, 2.2 g KCl, 6.07 g Tris, 1.0 g CaCl2, 9.9 g glucose, 1.0 ml saturated MgCl2 -solution, 43 ml 1N HCl; pH 7.4.
(c) Activity on the basal tones of guinea pig lung strips.
Increasing concentrations of the active substance are added to the suspension medium. There occurs a dilatation, which is cumulatively measured. From the Dose-Activity-curves are provided the following parameters: […]

[1] = test system: histamine-induced bronchoconstriction in guinea pigs; test: Inhibition of histamine-induced bronchoconstriction in guinea pigs in vivo
Protocol: Accordingly, this complete animal model is called upon for further experimental determination of the anti-asthmatic activity of compounds of Formula I. The following describes a representative experiment with salicylhydroxamic acid (SHAM) in […] male guinea pigs. SHAM is applied in a dose of 95 mg/kg body weight; this dose lies a power of ten below the determined values for acute toxicity (LD50 -value).
After urethane narcosis, a flexible catheter is introduced into the V. jugularis dext. of each animal. After a tracheotomy a tracheotubular needle is inserted for respiration. Then, after muscle relaxation with Pavulon, mechanical respiration follows in a Body-Plethysmograph (16 min^-1, I/E=1/1, pI =20 cmH2 O; Muller et al., 1976; Oddoy et al., 1982).
Over a tubular flesh needle at the outwardly led tracheotubular needle, the breath volume per draw of breath is measured by means of a pneumotachograph. The values are separately integrated and registered with a light recorder.
After 3 minutes calm breathing with registration of the parameter, three animals are dosed each with 2.5 ml SHAM-solution (isotonic, 37° C., 0.1M), i.v. (SHAM was dissolved in water directly before the test by heating, and the solution was cooled quickly in an 37° C. water bath.)
After 5 minutes further observation there follows the delivery of 5 μg/kg KM Histamine i.v. for providing a submaximal bronchospasm. After a further 5 minutes, 50 μg/kg KM Histamine are injected i.v. This leads according to experience to a fast, complete bronchial spasm ("silent chest"). After registration of the breath volume over a further 5 minutes, the test is completed.
In 3 animals serving as control group, with otherwise analogous procedure, instead of SHAM, 2.5 ml isotonic NaCl-solution are applied.
The calm- and the 5-minute values are mean values (in cm amplitude) from each 5 draws of breath.
The values after the Histamine injections represent the draw of breath having the smallest volume (3rd to 5th draw of breath after injection).

[2] = test system: histamine-induced bronchoconstriction in guinea pigs; test: as above; details: individual animals; second histamine injection; listed as SHAM
[3] = individual animals, draw of breath having the smallest volume, listed as SHAM
[4] = individual animals, listed as SHAM

Row | SMILES | EC50 (guinea pig lung strips; read-out: ED50 (dilatation)) | EC84 (guinea pig lung strips; read-out: ED84 (dilatation)) | volume change, after 5 min ([1]; average value for n = 3, 5 min after first histamine injection) | volume change, after 5 min ([1]; average value for n = 3, 5 min after second histamine injection) | volume change, after 5 min ([1]; average value for n = 3, after SHAM i.v.) | volume change, after 5 μg/kg Histamine ([1]; average value for n = 3, first histamine injection) | volume change, after 5 μg/kg Histamine ([1]; average value for n = 3, second histamine injection) | breath volume after i.v. injection ([1]; before histamine) | V-5 min after SHAM (breath volume change) ([1]; individual animals, 2.5 ml 0.1M SHAM i.v., cm amplitude) | volume change, after 5 min ([1]; individual animals, 5 min after first histamine injection, listed as SHAM) | volume change, after 5 min ([1]; individual animals, 5 min after second histamine injection, listed as SHAM) | V after 5 μg Hist. i.v. [1, 3] | V after 50 μg Hist. i.v. [1, 3] | volume change, after 5 μg/kg Histamine ([1]; individual animals, first histamine injection, listed as SHAM) | V-5 min thereafter (after 5 μg Hist.) [1, 4] | V-5 min thereafter (after 50 μg Hist.) [1, 4] | volume change, after 5 min ([1]; individual animals, percent of the starting draw volume, after SHAM i.v.) | bronchial spasm after histamine injections ([1]; pre-treated animals versus control group) | spontaneous regression of histamine induced bronchial spasm ([1]; treated animals versus control group) | volume change, after 5 μg/kg Histamine [2]
1 | O=C(COc1ccc2ccccc2c1)NO [2(2'-naphthoxy)-acethydroxamic acid] | 14 µM | 27 µM | – | – | – | – | – | – | – | – | – | – | – | – | – | – | – | – | – | –
2 | O=C(NO)c1ccccc1O [salicylhydroxamic acid] | – | – | +7% | -20% | +7.7% | -18% | -68.9% | insignificant rise | +0.1 cm and +0.2 cm and +0.45 cm | +5% and +10% and +7.2% | -04% and -22% and -35% | -0.4 cm and -2.2 cm | -2.4 cm and -4.4 cm and -1.6 cm | -8% and -48% and 0% | +0.26 cm and +0.48 cm and +0.19 cm | -0.2 cm and -1.0 cm and -0.9 cm | +2% and +4% and +17% | smaller bronchial spasm than the animals of the control group | more quickly and more extensively than in the control group | -49% and -95.7% and -62%
